Measured values reported in patent US20070123460A1, “Probiotic compounds from Lactobacillus GG and uses therefor” (THE UNIVERSITY OF CHICAGO, priority 2005, published 2007).

System: Hsp72
Experiment: Hsp72 induction in YAMC cells, Western blot
Assay type: cell-based, mouse
Details: inhibitor 2 hours before LGG-CM (15 minutes); harvest 4 hours later; SB203580 20 μM, SP600125 20 μM, PD98059 50 μM
Procedure: Prior to each study, cells were plated at a density of 2×10^5 per 60 mm tissue culture dish. For RNA preparation, cells were plated at a density of 7.5×10^5 cells per p100 mm dish. After 24 hours of growth at 33° C., the medium was replaced with IFN-free media and cells were moved to 37° C. (non-permissive conditions) for 24 hours to allow development of the differentiated colonocyte phenotype. […] Heat shock controls were heat-shocked at 42° C. for 23 minutes and then left at 37° C. for 2 hours before harvest.
Intestinal epithelial cells were treated with conditioned media from the probiotic LGG and then assayed for inducible heat shock protein expression. For Western blot analyses of expression, cells were washed twice and then scraped in ice-cold PBS (137 mM NaCl, 2.7 mM KCl, 8 mM Na2HPO4, pH 7.4). Cells were pelleted (14,000×g for 20 seconds at room temperature), then resuspended in ice-cold lysis buffer (10 mM Tris, pH 7.4, 5 mM MgCl2, 50 U/ml each of DNAse and RNAse, plus complete protease inhibitor cocktail (Roche Molecular Biochemicals, Indianapolis, Ind.)). Protein concentrations were determined using the bicinchoninic acid procedure (Smith et al., 1985). Samples were heated to 75° C. for 5 minutes after addition of 3× Laemmli Stop buffer, then stored at −80° C. until use.
Twenty micrograms of protein per lane were resolved on 12.5% SDS-PAGE. […]

## COc1cccc(-c2cc(=O)c3ccccc3o2)c1N [PD98059]
  inhibition of LGG-CM-induced Hsp72 expression: more modest effect
